This is an account of results in ChEMBL document CHEMBL5247625, “Discovery and characterization of novel potent BCR-ABL degraders by conjugating allosteric inhibitor” (Eur J Med Chem, 2022).

The Kd is the concentration at which binding is half-saturated. As usually defined, the IC50 is the concentration at which inhibition is half-maximal. A low value points to greater potency. Broadly, the Emax is the maximal effect, on the per cent scale that the assay sets. For orientation: DC50 means the concentration at which degradation of the target reaches its halfway point.

The target of series [1] is Tyrosine-protein kinase ABL1 (Homo sapiens, UniProt P00519). The experiment in a line: Binding affinity to recombinant ABL (unknown origin).
Chain of Tyrosine-protein kinase ABL1 (P00519 whole entry): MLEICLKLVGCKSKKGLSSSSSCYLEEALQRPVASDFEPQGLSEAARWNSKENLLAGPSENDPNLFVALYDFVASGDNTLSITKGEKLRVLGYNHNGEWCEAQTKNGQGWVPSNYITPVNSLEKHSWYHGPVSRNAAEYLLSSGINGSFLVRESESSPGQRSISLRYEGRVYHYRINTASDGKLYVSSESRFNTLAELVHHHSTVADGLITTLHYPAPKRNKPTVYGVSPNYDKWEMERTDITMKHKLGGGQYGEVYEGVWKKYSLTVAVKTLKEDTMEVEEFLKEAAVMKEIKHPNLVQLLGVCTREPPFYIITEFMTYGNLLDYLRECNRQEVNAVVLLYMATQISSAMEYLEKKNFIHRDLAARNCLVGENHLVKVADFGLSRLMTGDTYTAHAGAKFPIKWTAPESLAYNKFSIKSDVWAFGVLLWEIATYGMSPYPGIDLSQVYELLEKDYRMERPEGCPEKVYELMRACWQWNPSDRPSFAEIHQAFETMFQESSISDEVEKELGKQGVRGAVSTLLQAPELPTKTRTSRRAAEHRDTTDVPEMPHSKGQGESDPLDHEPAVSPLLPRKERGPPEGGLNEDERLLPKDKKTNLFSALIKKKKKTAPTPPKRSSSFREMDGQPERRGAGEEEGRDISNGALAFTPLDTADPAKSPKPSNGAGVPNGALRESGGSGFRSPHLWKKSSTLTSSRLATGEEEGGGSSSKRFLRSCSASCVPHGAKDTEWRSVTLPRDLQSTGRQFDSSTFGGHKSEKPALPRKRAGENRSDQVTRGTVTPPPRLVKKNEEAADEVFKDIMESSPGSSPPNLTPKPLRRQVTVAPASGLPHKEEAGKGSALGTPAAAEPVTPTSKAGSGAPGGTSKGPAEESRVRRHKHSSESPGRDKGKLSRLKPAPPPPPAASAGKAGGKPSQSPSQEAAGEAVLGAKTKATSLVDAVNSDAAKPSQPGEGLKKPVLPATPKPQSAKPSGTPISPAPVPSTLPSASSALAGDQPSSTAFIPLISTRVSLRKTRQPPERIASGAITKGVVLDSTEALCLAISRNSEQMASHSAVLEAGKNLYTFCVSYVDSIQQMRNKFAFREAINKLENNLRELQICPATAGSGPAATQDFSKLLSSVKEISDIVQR
The subject of series [2] is Protein cereblon/Tyrosine-protein kinase ABL1/Breakpoint cluster region protein (Mus musculus), P00519+P11274+Q8C7D2 [G671R]. The experiment in a line: Protac activity at CRBN/asciminib resistance BCR-ABL G671R mutant in mouse 32D cells assessed as increase in BCR-ABL degradation at 1 to 1000 nM by Western blotting analysis. The class given is cell-based. To be noted: dose 1-1000 nM.

The target in series [3] is T1, Protein cereblon/Tyrosine-protein kinase ABL1/Breakpoint cluster region protein (Homo sapiens, UniProt P00519+P11274+Q96SW2). The experiment in a line: Protac activity at CRBN/BCR-ABL in human K562 cells assessed as induction of BCR-ABL degradation at 100 nM pretreated with lenalidomide for 2 hrs followed by compound addition measured after 8 hrs by Western blotting analysis. Type of series: cell-based. To be noted: time 10.0 hrs. (A western blot detects proteins with antibodies after separation by electrophoresis.)
Target sequence in this assay (P00519 whole entry, looked up): as the sequence (P00519 whole entry) above
Target sequence in this assay (P11274 whole entry, looked up): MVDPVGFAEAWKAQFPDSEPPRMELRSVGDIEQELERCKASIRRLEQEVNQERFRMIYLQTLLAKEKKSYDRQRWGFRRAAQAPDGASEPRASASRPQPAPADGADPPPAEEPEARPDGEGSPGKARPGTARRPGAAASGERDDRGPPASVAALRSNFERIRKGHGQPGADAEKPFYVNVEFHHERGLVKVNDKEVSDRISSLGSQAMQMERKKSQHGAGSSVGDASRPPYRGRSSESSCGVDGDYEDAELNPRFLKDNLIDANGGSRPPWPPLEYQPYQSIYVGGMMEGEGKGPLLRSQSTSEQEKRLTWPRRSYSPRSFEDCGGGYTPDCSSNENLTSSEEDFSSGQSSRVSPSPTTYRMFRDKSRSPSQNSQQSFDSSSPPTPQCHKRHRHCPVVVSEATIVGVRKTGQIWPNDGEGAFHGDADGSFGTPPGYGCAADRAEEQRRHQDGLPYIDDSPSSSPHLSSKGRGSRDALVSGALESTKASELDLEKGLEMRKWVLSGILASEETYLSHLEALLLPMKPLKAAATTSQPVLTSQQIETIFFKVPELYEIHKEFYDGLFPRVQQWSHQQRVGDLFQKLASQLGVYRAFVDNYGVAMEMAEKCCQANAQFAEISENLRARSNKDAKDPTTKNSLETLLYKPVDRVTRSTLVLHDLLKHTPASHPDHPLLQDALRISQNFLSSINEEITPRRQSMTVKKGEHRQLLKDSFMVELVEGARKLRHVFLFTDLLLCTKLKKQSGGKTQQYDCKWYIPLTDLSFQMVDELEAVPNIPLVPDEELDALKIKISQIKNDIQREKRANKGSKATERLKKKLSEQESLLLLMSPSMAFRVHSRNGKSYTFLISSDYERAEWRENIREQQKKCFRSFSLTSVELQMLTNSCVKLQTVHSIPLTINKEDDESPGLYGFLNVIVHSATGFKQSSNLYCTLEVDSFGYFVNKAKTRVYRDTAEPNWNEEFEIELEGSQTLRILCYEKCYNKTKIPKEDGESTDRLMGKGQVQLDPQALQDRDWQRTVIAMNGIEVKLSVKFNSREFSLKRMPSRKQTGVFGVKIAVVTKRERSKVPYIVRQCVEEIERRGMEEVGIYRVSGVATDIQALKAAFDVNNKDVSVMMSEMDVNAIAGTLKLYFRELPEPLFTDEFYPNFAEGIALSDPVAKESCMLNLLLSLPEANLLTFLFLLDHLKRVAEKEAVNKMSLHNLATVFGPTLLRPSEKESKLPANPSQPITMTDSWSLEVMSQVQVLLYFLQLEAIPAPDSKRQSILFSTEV
Target sequence in this assay (Q96SW2 whole entry, looked up): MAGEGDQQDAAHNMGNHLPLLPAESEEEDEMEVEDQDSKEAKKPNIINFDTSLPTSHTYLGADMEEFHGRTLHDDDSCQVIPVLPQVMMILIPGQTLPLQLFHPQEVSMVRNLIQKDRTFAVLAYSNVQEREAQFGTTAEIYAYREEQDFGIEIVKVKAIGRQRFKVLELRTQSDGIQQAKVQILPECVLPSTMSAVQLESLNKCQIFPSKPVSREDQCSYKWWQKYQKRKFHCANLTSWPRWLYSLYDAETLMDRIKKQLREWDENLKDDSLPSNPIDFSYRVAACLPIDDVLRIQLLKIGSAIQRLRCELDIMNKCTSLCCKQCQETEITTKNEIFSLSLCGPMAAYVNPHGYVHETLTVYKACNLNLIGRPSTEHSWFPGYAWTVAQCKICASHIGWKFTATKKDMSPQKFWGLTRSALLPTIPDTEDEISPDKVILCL

Series [4] concerns the target T1, Protein cereblon/Tyrosine-protein kinase ABL1/Breakpoint cluster region protein. The experiment in a line: Protac activity at CRBN/BCR-ABL in human K562 cells assessed as increase in BCR-ABL degradation at 100 nM incubated for 6 hrs by Western blotting analysis. Type of series: cell-based.
Target sequence in this assay (P00519 whole entry, looked up): as the sequence (P00519 whole entry) above
Target sequence in this assay (P11274 whole entry, looked up): as the sequence (P11274 whole entry, looked up) above
Target sequence in this assay (Q96SW2 whole entry, looked up): as the sequence (Q96SW2 whole entry, looked up) above
Series [5] has as its system K562. The series is described as follows: Cytotoxicity against human K562 cells assessed as inhibition of cell growth at 100 nM incubated for 6 hrs followed by compound washout measured upto 96 hrs. Type of series: functional, cell-based.
Series [6] has as its target Crk-like protein (Homo sapiens) (UniProt P46109). The experiment in a line: Inhibition of CRKL phosphorylation at Tyr207 residue in human K562 cells at 100 nM incubated for 6 hrs followed by compound washout measured upto 96 hrs by Western blotting analysis. Type of series: cell-based.
Series [7] has as its target Bcr/Abl fusion protein (Homo sapiens) (UniProt P00519+P11274). The series is described as follows: Inhibition of BCR-ABL phosphorylation at Tyr245 residue in human K562 cells at 100 nM incubated for 6 hrs followed by compound washout measured upto 96 hrs by Western blotting analysis. The class given is cell-based.
Series [8] relates to K562. The series is described as follows: Induction of cell death in human K562 cells assessed as inhibition of cell growth at 100 nM incubated for 6 hrs followed by compound washout measured upto 96 hrs. The class given is functional, cell-based.
For series [9], the system named is Protein cereblon/Tyrosine-protein kinase ABL1/Breakpoint cluster region protein (Mus musculus), P00519+P11274+Q8C7D2 [F359V]. The experiment in a line: Protac activity at CRBN/asciminib resistance BCR-ABL F359V mutant in mouse 32D cells assessed as increase in BCR-ABL degradation at 1 to 1000 nM by Western blotting analysis. Type of series: cell-based. To be noted: dose 1-1000 nM.

Series [10] relates to Protein cereblon/Tyrosine-protein kinase ABL1/Breakpoint cluster region protein (Mus musculus), P00520+Q6PAJ1+Q8C7D2 [T315I]. The experiment in a line: Protac activity at CRBN/BCR-ABL T315I mutant in mouse 32D cells assessed as increase in BCR-ABL degradation at 1 to 1000 nM by Western blotting analysis. The class given is cell-based. As to conditions: dose 1-1000 nM.
Series [11] relates to K562. The experiment in a line: Down regulation of […] expression in human K562 cells at 100 nM measured after 16 hrs by LC-MS analysis. The class given is functional, cell-based.
Series [12] deals with K562. The series is described as follows: cells. As to conditions: Homo sapiens, K562, 48 h.
Description: Antiproliferative activity against human K562 cells assessed as inhibition of cell growth incubated for 2 days by CCK8 assay
In series [13] the target is T1, Protein cereblon/Tyrosine-protein kinase ABL1/Breakpoint cluster region protein. The experiment in a line: Protac activity at CRBN/BCR-ABL in human K562 cells assessed as increase in BCR-ABL degradation at 100 nM incubated for 6 hrs followed by compound washout measured after 4 hrs by Western blotting analysis. The class given is cell-based.
Target sequence in this assay (P00519 whole entry, looked up): as the sequence (P00519 whole entry) above
Target sequence in this assay (P11274 whole entry, looked up): as the sequence (P11274 whole entry, looked up) above
Target sequence in this assay (Q96SW2 whole entry, looked up): as the sequence (Q96SW2 whole entry, looked up) above
Series [14] has the same target. The series is described as follows: Protac activity at CRBN/BCR-ABL in human K562 cells assessed as increase in BCR-ABL degradation at 100 nM by Western blotting analysis. The class given is cell-based.
Target sequence in this assay (P00519 whole entry, looked up): as the sequence (P00519 whole entry) above
Target sequence in this assay (P11274 whole entry, looked up): as the sequence (P11274 whole entry, looked up) above
Target sequence in this assay (Q96SW2 whole entry, looked up): as the sequence (Q96SW2 whole entry, looked up) above
Series [15] is described as follows: Apparent permeability in human Caco-2 cells incubated for 120 mins by LC-MS/MS analysis. As to conditions: caco-2, 2 h. Type of series: ADME, cell-based.
Series [16] has as its target T1, Protein cereblon/Tyrosine-protein kinase ABL1/Breakpoint cluster region protein. The series is described as follows: Protac activity at CRBN/BCR-ABL in human K562 cells assessed as increase in BCR-ABL degradation at 0.3 to 100 nM incubated for 16 hrs by Western blotting analysis relative to control. To be noted: dose 0.3-100 nM. The class given is cell-based.
Target sequence in this assay (P00519 whole entry, looked up): as the sequence (P00519 whole entry) above
Target sequence in this assay (P11274 whole entry, looked up): as the sequence (P11274 whole entry, looked up) above
Target sequence in this assay (Q96SW2 whole entry, looked up): as the sequence (Q96SW2 whole entry, looked up) above
The target of series [17] is T2, Signal transducer and activator of transcription 5A (Homo sapiens) (UniProt P42229).
T2 sequence (whole entry): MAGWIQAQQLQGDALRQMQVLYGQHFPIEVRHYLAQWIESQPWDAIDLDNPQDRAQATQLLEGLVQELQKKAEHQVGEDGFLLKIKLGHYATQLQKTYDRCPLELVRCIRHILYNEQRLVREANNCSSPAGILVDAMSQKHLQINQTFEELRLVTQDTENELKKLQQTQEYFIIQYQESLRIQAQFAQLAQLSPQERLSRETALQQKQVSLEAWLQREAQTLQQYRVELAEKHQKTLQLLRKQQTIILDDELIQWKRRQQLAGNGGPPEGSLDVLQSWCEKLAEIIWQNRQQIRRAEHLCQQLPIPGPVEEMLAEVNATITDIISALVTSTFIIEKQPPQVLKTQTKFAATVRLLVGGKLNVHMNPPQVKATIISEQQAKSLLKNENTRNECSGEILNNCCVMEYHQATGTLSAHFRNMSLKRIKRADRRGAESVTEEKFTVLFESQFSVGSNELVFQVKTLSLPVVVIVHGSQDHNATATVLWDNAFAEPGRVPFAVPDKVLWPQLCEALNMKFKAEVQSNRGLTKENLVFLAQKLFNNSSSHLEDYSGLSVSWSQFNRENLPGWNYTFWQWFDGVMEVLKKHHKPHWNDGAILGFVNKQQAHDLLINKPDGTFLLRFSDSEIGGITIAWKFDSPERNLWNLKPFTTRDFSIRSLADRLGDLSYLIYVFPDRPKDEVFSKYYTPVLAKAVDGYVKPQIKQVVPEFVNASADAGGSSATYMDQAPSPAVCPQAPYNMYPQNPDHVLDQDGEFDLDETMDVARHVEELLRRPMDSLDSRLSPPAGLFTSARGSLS
The series is described as follows: Inhibition of STAT5 phosphorylation at Tyr694 residue in human K562 cells at 100 nM incubated for 6 hrs followed by compound washout measured upto 96 hrs by Western blotting analysis. Type of series: cell-based.

The target in series [18] is T1, Protein cereblon/Tyrosine-protein kinase ABL1/Breakpoint cluster region protein. The series is described as follows: Protac activity at CRBN/BCR-ABL in human K562 cells assessed as induction of BCR-ABL degradation at 100 nM pretreated with MG132 for 2 hrs followed by compound addition measured after 8 hrs by Western blotting analysis. Type of series: cell-based. To be noted: time 10.0 hrs.
Target sequence in this assay (P00519 whole entry, looked up): as the sequence (P00519 whole entry) above
Target sequence in this assay (P11274 whole entry, looked up): as the sequence (P11274 whole entry, looked up) above
Target sequence in this assay (Q96SW2 whole entry, looked up): as the sequence (Q96SW2 whole entry, looked up) above

Series [19] shares this target. The series is described as follows: Protac activity at CRBN/BCR-ABL in human K562 cells assessed as increase in BCR-ABL degradation incubated for 16 hrs by Western blotting analysis. The class given is cell-based.
Target sequence in this assay (P00519 whole entry): as the sequence (P00519 whole entry) above
Target sequence in this assay (P11274 whole entry): as the sequence (P11274 whole entry, looked up) above
Target sequence in this assay (Q96SW2 whole entry): as the sequence (Q96SW2 whole entry, looked up) above
The target of series [20] is T2, Signal transducer and activator of transcription 5A (Homo sapiens). The experiment in a line: Inhibition of STAT5 phosphorylation at Tyr694 residue in human K562 cells at 100 nM by Western blotting analysis. Type of series: cell-based. To be noted: time <= 18.0 hrs, TDE = time-dependent effect.
In series [21] the target is T1, Protein cereblon/Tyrosine-protein kinase ABL1/Breakpoint cluster region protein. The series is described as follows: Protac activity at CRBN/BCR-ABL in human K562 cells assessed as induction of BCR-ABL degradation at 100 nM pretreated with asciminib for 2 hrs followed by compound addition measured after 8 hrs by Western blotting analysis. The class given is cell-based. To be noted: time 10.0 hrs.

For series [22], the target named is Crk-like protein (Homo sapiens) (UniProt P46109). The experiment in a line: Inhibition of CRKL phosphorylation at Tyr207 residue in human K562 cells at 100 nM by Western blotting analysis. Type of series: cell-based. As to conditions: time <= 18.0 hrs, TDE = time-dependent effect.
Chain of Crk-like protein (Homo sapiens) (P46109 whole entry, the tested form may be a part): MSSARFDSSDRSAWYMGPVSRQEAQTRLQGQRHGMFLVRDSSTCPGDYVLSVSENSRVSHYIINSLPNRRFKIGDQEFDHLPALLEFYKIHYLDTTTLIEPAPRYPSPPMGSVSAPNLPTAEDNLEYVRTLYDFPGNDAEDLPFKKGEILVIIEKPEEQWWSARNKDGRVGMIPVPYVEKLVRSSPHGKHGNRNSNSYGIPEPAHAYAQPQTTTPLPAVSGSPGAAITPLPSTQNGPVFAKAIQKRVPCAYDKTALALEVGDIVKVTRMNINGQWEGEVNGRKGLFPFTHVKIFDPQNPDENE
For series [23] the target is unchanged. The series is described as follows: Inhibition of CRKL phosphorylation at Tyr207 residue in human K562 cells at 0.3 to 100 nM incubated for 16 hrs by Western blotting analysis. Type of series: cell-based. To be noted: dose 0.3-100 nM.

The source made the active and inactive calls. No cut-off for these calls is given here.

Chain of Bcr/Abl fusion protein (Homo sapiens) (P00519 whole entry, looked up, the tested form may be a part): as the sequence (P00519 whole entry) above
Chain of Bcr/Abl fusion protein (Homo sapiens) (P11274 whole entry, looked up, the tested form may be a part): as the sequence (P11274 whole entry, looked up) above

For `O=C1CCC(N2Cc3c(SCCCCCCN4CCN(C5CCN(c6ncc(C(=O)Nc7ccc(OC(F)(F)Cl)cc7)cc6-c6ccn[nH]6)CC5)CC4)cccc3C2=O)C(=O)N1` (stereo not drawn), the Kd in [1] amounted to 4.74 µM. Besides, the result in [2], in [4], in series [5], in series [8], in series [9] and in series [10] was Active. Also, the result in series [11] was Active. Further, the result in series [3], in series [13], in [18] and in series [21] was inactive. For the same molecule, the inhibition result in series [6], in series [7] and in series [17] was “inactive” throughout. The same molecule returned an IC50 in series [12] of 12 nM. In [14], the Activity was 91.2%. For the same molecule, the Papp entry in series [15] is given as “Impermeable”. Moreover, the Emax in series [16] was 91.2%. Further, in series [19], the 50% degradation concentration (DC50) came out at 2.7 nM. In addition, the inhibition result in series [20] and in series [22] was “Tde” throughout. Moreover, the inhibition result in series [23] is “Active”.
